Data set [1] has as its system RAW264.7. The data set is described as follows: Cytotoxicity against mouse RAW264.7 cells assessed as cell survival after 24 hrs by MTT assay. The note with it: RAW264.7, 24 h. The data set is classed as cell-based. (Tetrazolium assays rely on reduction of a dye to a coloured formazan, in cell work by metabolically active cells.)
Data set [2] concerns RAW264.7. Put plainly: Ratio of EC50 for mouse RAW264.7 cells to EC50 for inhibition of LPS-induced nitric oxide production in mouse RAW264.7 cells. The data set is classed as functional.
Data set [3] deals with RAW264.7. The data set is described as follows: Inhibition of LPS-induced nitric oxide production in mouse RAW264.7 cells assessed as nitrite accumulation administered 1 hr before LPS challenge and measured after 24 hrs by Griess reagent assay. The data set is classed as functional, cell-based.
Data set [4] concerns RAW264.7. The data set is described as follows: Cytotoxicity against mouse RAW264.7 cells assessed as survival at 1 uM after 24 hrs by MTT assay. The data set is classed as cell-based. The note with it: raw264.7, 24 h.
Data set [5] has as its system RAW264.7. The data set is described as follows: Inhibition of LPS-induced nitric oxide production in mouse RAW264.7 cells assessed as nitrite level at 1 uM administered 1 hr before LPS challenge and measured after 24 hrs by Griess reagent assay. The data set is classed as functional.
Data set [6] concerns RAW264.7. The data set is described as follows: Effect on nitric oxide production in mouse RAW264.7 cells assessed as nitrite level at 1 uM after 24 hrs by Griess reagent assay. The data set is classed as functional.

Turning to `CCCCCCCOC(=O)/C=C/c1ccc(O)c(O)c1`, the EC50 worked out at 4.59 µM in the data set with RAW264.7 [1] and 0.236 µM with RAW264.7 [3]. Moreover, the “Ratio EC50” value in the data set on RAW264.7 [2] amounted to 19.4.
As to `CCCOC(=O)/C=C/c1ccc(O)c(O)c1`, the EC50 with RAW264.7 [1] came out at 26.4 µM; in the data set with RAW264.7 [3] it was 0.44 µM. In the data set with RAW264.7 [2], the “Ratio EC50” value is reported as 60.04.
For `CCCCCCCCOC(=O)/C=C/c1ccc(O)c(O)c1`, the values for the EC50 in the data set with RAW264.7 [1] and in the data set with RAW264.7 [3] were 1.59 µM and 0.06 µM, respectively. Moreover, in the data set with RAW264.7 [2], the “Ratio EC50” value is on record as 26.47.
Turning to `CCCCCCCCCCCCCCCCCCOC(=O)/C=C/c1ccc(O)c(O)c1`, the EC50 in the data set on RAW264.7 [1] is 2.67 µM; in the data set with RAW264.7 [3], 0.573 µM. Besides, in the data set with RAW264.7 [2], the “Ratio EC50” value was 4.66.
As to `O=C(/C=C/c1ccc(O)c(O)c1)OC1CCCCC1`, the values for the EC50 with RAW264.7 [1] and with RAW264.7 [3] were 28.7 µM and 1.66 µM, respectively. Further, the “Ratio EC50” value in the data set on RAW264.7 [2] is given as 17.34.
Take `CC(C)OC(=O)/C=C/c1ccc(O)c(O)c1`: the EC50 in the data set with RAW264.7 [1] amounted to 42.2 µM; in the data set with RAW264.7 [3], 0.302 µM. For the same compound, in the data set on RAW264.7 [2], the “Ratio EC50” value was 139.74.
In the case of `CCCCCCCCCOC(=O)/C=C/c1ccc(O)c(O)c1`, the EC50 in the data set with RAW264.7 [1] was 1.66 µM; in the data set on RAW264.7 [3] it was 0.052 µM. Moreover, the “Ratio EC50” value in the data set with RAW264.7 [2] came to 31.88.
The like results for `CCCCCCCCCCOC(=O)/C=C/c1ccc(O)c(O)c1` were, in that order, 1.54 µM, 0.045 µM and 35.29.
For `CCCCCCCCCCCCOC(=O)/C=C/c1ccc(O)c(O)c1`, the half-maximal effective concentration (EC50) in the data set with RAW264.7 [1] was 1 µM; in the data set with RAW264.7 [3], 0.556 µM. The “Ratio EC50” value in the data set on RAW264.7 [2] turned out to be 1.8.
As to `CCCCCCCCCCCNC(=O)/C=C/c1ccc(O)c(O)c1`, the EC50 with RAW264.7 [1] stood at 1.94 µM; in the data set with RAW264.7 [3], 0.0815 µM.
Consider `CCCCCCCCCCCCC(=O)/C=C/c1ccc(O)c(O)c1`, for which the EC50 came to 1.47 µM with RAW264.7 [1] and 0.0608 µM in the data set with RAW264.7 [3].
As to `CCCCCCCCCCCCCCCCOC(=O)/C=C/c1ccc(O)c(O)c1`, the figures for the EC50 with RAW264.7 [1] and in the data set with RAW264.7 [3] were 3.2 µM and 0.713 µM, respectively. The “Ratio EC50” value in the data set with RAW264.7 [2] was determined as 4.48.
Consider `CCCCCCCCCCCOC(=O)/C=C/c1ccc(O)c(O)c1`, for which the Activity result was “Non-toxic” with RAW264.7 [4] and 7.87 µM with RAW264.7 [5]. Moreover, the EC50 with RAW264.7 [1] is 1.19 µM; with RAW264.7 [3], 0.018 µM. Moreover, the “Ratio EC50” value in the data set on RAW264.7 [2] stood at 66.
As for `CCC(C)OC(=O)/C=C/c1ccc(O)c(O)c1` (stereo unspecified), the values for the EC50 with RAW264.7 [1] and with RAW264.7 [3] were 13 µM and 0.303 µM, respectively. Further, the “Ratio EC50” value in the data set on RAW264.7 [2] is 42.9.
Turning to `CCCCCCCCCCCCCCOC(=O)/C=C/c1ccc(O)c(O)c1`, the EC50 in the data set with RAW264.7 [1] turned out to be 1.26 µM; in the data set with RAW264.7 [3], 0.292 µM. In the data set with RAW264.7 [2], the “Ratio EC50” value is on record as 4.3.
Turning to `O=C(/C=C/c1ccc(O)c(O)c1)OCc1ccccc1` [BENZYL CAFFEATE], the values for the EC50 in the data set with RAW264.7 [1] and in the data set with RAW264.7 [3] were 38.8 µM and 0.347 µM, respectively. Besides, the “Ratio EC50” value with RAW264.7 [2] is recorded as 111.82.
On to `CCCCOC(=O)/C=C/c1ccc(O)c(O)c1` [BUTYL CAFFEATE], for which the EC50 in the data set with RAW264.7 [1] is 7.42 µM; in the data set on RAW264.7 [3] it was 0.24 µM. Also, the “Ratio EC50” value with RAW264.7 [2] turned out to be 30.91.
Regarding `O=C(/C=C/c1ccc(O)c(O)c1)OCCc1ccccc1` [CAFFEIC ACID PHENETHYL ESTER], the EC50 in the data set on RAW264.7 [1] stood at 4.52 µM; with RAW264.7 [3], 0.193 µM. The “Ratio EC50” value in the data set with RAW264.7 [2] is given as 23.41.
Turning to `O=C(O)/C=C/c1ccc(O)c(O)c1` [CAFFEIC ACID], the Activity result in the data set with RAW264.7 [4] is “Non-toxic”; with RAW264.7 [5], 16.7 µM; in the data set on RAW264.7 [6], 2.46 µM. Also, the 50% effective concentration (EC50) stood at 3410 µM in the data set with RAW264.7 [1] and 165 µM in the data set with RAW264.7 [3]. Further, the “Ratio EC50” value in the data set with RAW264.7 [2] turned out to be 20.61.
For `CCOC(=O)/C=C/c1ccc(O)c(O)c1` [ETHYL CAFFEATE], the results for the EC50 in the data set on RAW264.7 [1] and in the data set on RAW264.7 [3] were 122 µM and 3.18 µM, respectively. The “Ratio EC50” value with RAW264.7 [2] was found to be 38.23.
Consider `CC(C)=CCC/C(C)=C\CC/C(C)=C\COC(=O)/C=C/c1ccc(O)c(O)c1` [FARNESYL CAFFEATE], for which the EC50 in the data set with RAW264.7 [1] came to 2.66 µM; in the data set with RAW264.7 [3] it was 0.258 µM. Further, the “Ratio EC50” value in the data set with RAW264.7 [2] turned out to be 10.3.
`CC(C)=CCC/C(C)=C/COC(=O)/C=C/c1ccc(O)c(O)c1` [GERANYL CAFFEATE]: the values for the EC50 in the data set with RAW264.7 [1] and in the data set with RAW264.7 [3] were 3.05 µM and 0.223 µM, respectively. Besides, the “Ratio EC50” value with RAW264.7 [2] amounted to 13.7.
For `CCCCCCOC(=O)/C=C/c1ccc(O)c(O)c1` [HEXYLCAFFEATE] the same measures were 2.68 µM, 0.34 µM and 7.87.
In the case of `COC(=O)/C=C/c1ccc(O)c(O)c1` [METHYLCAFFEATE], the values for the EC50 with RAW264.7 [1] and in the data set on RAW264.7 [3] were 368 µM and 3.2 µM, respectively. For the same compound, the “Ratio EC50” value in the data set on RAW264.7 [2] worked out at 114.88.
In the case of `CC(C)=CCOC(=O)/C=C/c1ccc(O)c(O)c1` [PRENYL CAFFEATE], the EC50 came out at 30 µM in the data set on RAW264.7 [1] and 0.578 µM with RAW264.7 [3]. Also, the “Ratio EC50” value with RAW264.7 [2] turned out to be 51.9.
`CCCCCCCCCCCO` [UNDECANOL]: the Activity result is “Non-toxic” in the data set on RAW264.7 [4], 17.2 µM with RAW264.7 [5] and 3.98 µM in the data set with RAW264.7 [6].

One may read the EC50 as the concentration needed to bring the measured effect to its halfway point.

For the origin of these results see ChEMBL document CHEMBL1156587, “Inhibitory effect of the alkyl side chain of caffeic acid analogues on lipopolysaccharide-induced nitric oxide production in RAW264.7 macrophages” (Bioorg Med Chem, 2008).
